38 molecules from patent US9790169B2, “IDO inhibitors” (BRISTOL-MYERS SQUIBB COMPANY, priority 2015, dated 2017) can be followed below.

In this experiment the target is human IDO1 (Homo sapiens, UniProt P14902). In words: Assessment of human IDO-1 inhibitory activity in HEK cells (human IDO1/HEK293 cells, kynurenine read-out with Ehrlich reagent, absorbance 490 nm). It counts as cell-based. Also noted: expressed in transfected cells. To be noted: HEK Human IDO-1 cellular assay. In outline: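 Kynurenine output from stably IDO1-transfected HEK293 cells (10,000/well, phenol red-free RPMI, 10% FBS) after 20 h compound exposure at 37 °C. The reaction was stopped with 0.2% TCA and heated 30 min at 50 °C, then the supernatant was mixed with Ehrlich reagent and read at 490 nm. IC50 was set against DMSO and a 500 nM reference standard as 0 and 100% inhibition.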
human IDO1, sequence (P14902 whole entry): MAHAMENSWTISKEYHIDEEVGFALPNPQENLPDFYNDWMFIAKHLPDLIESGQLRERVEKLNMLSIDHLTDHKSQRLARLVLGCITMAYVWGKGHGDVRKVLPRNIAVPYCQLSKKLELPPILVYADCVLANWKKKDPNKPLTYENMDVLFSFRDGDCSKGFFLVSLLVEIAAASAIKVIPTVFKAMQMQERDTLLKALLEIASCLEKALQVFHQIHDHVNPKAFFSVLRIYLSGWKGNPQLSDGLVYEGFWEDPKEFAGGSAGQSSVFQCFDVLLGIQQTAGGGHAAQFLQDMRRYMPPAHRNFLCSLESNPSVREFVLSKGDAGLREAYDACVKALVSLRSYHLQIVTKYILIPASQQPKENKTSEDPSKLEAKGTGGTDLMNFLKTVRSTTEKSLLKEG
Consider `CCC(CC(=O)O)c1cc(F)c(N(CC(C)C)CC(C)C)c(Nc2ccc(Cl)c(OCC(F)(F)F)c2)c1` (single isomer, unassigned) [Example 118, 3-(3-((4-chloro-3-(2,2,2-trifluoroethoxy)phenyl)-amino)-4-(diisobutylamino)-5-fluorophenyl)pentanoic acid], for which the IC50 was under 50 nM.
As for `CCC(CC(=O)O)c1ccc(N2CCC[C@H]2C(C)(C)O)c(Nc2ccc(Cl)cc2)c1` (single isomer, unassigned) [Example 836], the IC50 was under 50 nM.
For the molecule `COCC(CC(=O)O)c1ccc(N(CC(C)C)CC(C)C)c(NC(=O)Nc2ccc(Cl)cc2F)c1` (racemic) [Example 994, (+/−)-3-(3-(3-(4-Chloro-2-fluorophenyl)ureido)-4-(diisobutylamino)phenyl)-4-methoxybutanoic acid], the IC50 is under 5 nM.
The figure for `CCC(CC(=O)O)c1ccc(N(CC)C2CCCOC2)c(NC(=O)Nc2ccc(C)cc2)c1` (single isomer, unassigned) [Example 73 D4, 3-(4-(Ethyl(tetrahydro-2H-pyran-3-yl)amino)-3-(3-(p-tolyl)ureido)phenyl)pentanoic acid] is under 5 nM; for `CCC(CC(=O)O)c1ccc(N(CC(C)C)CC(C)(C)O)c(Nc2ccc(Cl)cc2)c1` (racemic) [Example 453, 3-(3-((4-chlorophenyl)amino)-4-((2-hydroxy-2-methyl-propyl)(isobutyl)amino)phenyl) pentanoic acid] it is under 5 nM.
Turning to `CCC(CC(=O)O)c1ccc(N2CCC[C@@H]2COC)c(NC(=O)Cc2ccc(C)cc2)c1` (mixture of isomers) [Example 1143, (±)-3-(4-((R)-2-(Methoxymethyl)pyrrolidin-1-yl)-3-(2-(p-tolyl)acetamido)phenyl)pentanoic acid], the IC50 was over 50 nM.
The figure for `CC(CC(=O)O)c1ccc(N(CC(C)(C)O)C2CCOCC2)c(Nc2ccc(Cl)cc2)c1` (single isomer, unassigned) [Example 195, 3-(3-((4-Chlorophenyl)amino)-4-((2-hydroxy-2-methylpropyl)(tetrahydro-2H-pyran-4-yl)amino)phenyl)butanoic acid] is under 5 nM.
The figure for `CC[C@@H](CC(=O)O)c1ccc(N(CC)C2CCOCC2)c(Nc2cn3ccnc3cn2)c1` (single isomer, unassigned) [Example 483] is over 50 nM; for `CCC(CC(=O)O)c1ccc(N2CCC[C@H]2C(C)(C)O)c(Nc2ccc(OCC3CC3)cc2)c1` (single isomer, unassigned) [Example 818] it is over 50 nM.
To `COCC(CC(=O)O)c1cc(F)c(N(CC(C)C)CC(C)C)c(NC(=O)Nc2ccc(Cl)cc2F)c1` (single isomer, unassigned) [Example 1182, 3-(3-(3-(4-Chloro-2-fluorophenyl)ureido)-4-(diisobutylamino)-5-fluorophenyl)-4-methoxybutanoic acid] belongs under 5 nM; to `CC[C@@H](CC(=O)O)c1ccc(N2CCOC[C@@H]2C(C)C)c(Nc2ccc3nc(C)sc3c2)c1` (single isomer, unassigned) [Example 80], over 50 nM; to “3-(4-(isobutyl(tetrahydro-2H-pyran-4-yl)amino)-3-(3-(4-phenoxyphenyl)ureido)phenyl)butanoic acid [Example 962]”, over 50 nM.
Turning to `CC[C@@H](CC(=O)O)c1ccc(N(CC(C)(C)O)C2CCCCC2)c(Nc2ccc(OC(F)F)cc2)c1` (single isomer, unassigned) [Example 226], the IC50 was under 5 nM.
To `CCOc1ccc(NC(=O)Nc2cc(C(C)CC(=O)O)ccc2N(CC(C)C)C2CCOCC2)cc1` (single isomer, unassigned) [Example 963, 3-(3-(3-(4-ethoxyphenyl)ureido)-4-(isobutyl(tetrahydro-2H-pyran-4-yl)amino)phenyl)butanoic acid] belongs over 50 nM; to `COCC(CC(=O)O)c1ccc(N(CC(C)C)C2CCCCC2)c(NC(=O)Cc2ccccc2F)c1` (racemic) [Example 1230, (+/−)-3-(4-(Cyclohexyl(isobutyl)amino)-3-(2-(2-fluorophenyl)acetamido)phenyl)-4-methoxybutanoic acid], under 50 nM; to `CCC(CC(=O)O)c1ccc(N(CC)C2CCOCC2)c(NC(=O)Nc2ccc(OC)cc2F)c1` (racemic) [Example 608, 3-(4-(Ethyl(tetrahydro-2H-pyran-4-yl)amino)-3-(3-(2-fluoro-4-methoxyphenyl)ureido)phenyl)pentanoic acid], under 5 nM.
Regarding `CCOc1ncc(Nc2cc([C@@H](CC)CC(=O)O)ccc2N(CC(C)(C)O)C2CCCCC2)cn1` (single isomer, unassigned) [Example 229], the IC50 is under 50 nM.
To `CC[C@@H](CC(=O)O)c1ccc(N(CC(C)C)C2CCS(=O)(=O)CC2)c(Nc2ccc3sc(C)nc3c2)c1` (single isomer, unassigned) [Example 219] belongs under 5 nM; to `Cc1ccc(CC(=O)Nc2cc(C(C)CC(=O)O)ccc2N(CC(C)C)C2CCOCC2)cc1` (single isomer, unassigned) [Example 966, 3-(4-(Isobutyl(tetrahydro-2H-pyran-4-yl)amino)-3-(2-(p-tolyl)acetamido)phenyl)butanoic acid], under 50 nM; to `CC[C@@H](CC(=O)O)c1ccc(N2CCOC[C@@H]2C(C)C)c(NC(=O)Nc2cc(C)on2)c1` (single isomer, unassigned) [Example 77], over 50 nM.
The figure for `CCC(CC(=O)O)c1ccc(N(CC(C)C)C2CCCCC2)c(Nc2ccc(C)cc2)c1` (single isomer, unassigned) [Example 304, 3-(4-(cyclohexyl(isobutyl)amino)-3-(p-tolylamino)phenyl)pentanoic acid] is under 5 nM; for `CC(CC(=O)O)c1ccc(N(CC(C)(C)O)C2CCOCC2)c(Nc2ccc(C#N)cc2)c1` (single isomer, unassigned) [Example 194, 3-(3-((4-cyanophenyl)amino)-4-((2-hydroxy-2-methylpropyl)(tetrahydro-2H-pyran-4-yl)amino)phenyl)butanoic acid] it is under 50 nM; for `CCc1cnc(Nc2cc([C@H](CC)CC(=O)O)ccc2N(CC)C2CCOCC2)nc1` (single isomer, unassigned) [Example 500] it is over 50 nM.
The figure for `CC[C@@H](CC(=O)O)c1ccc(N(CC)C2CCOCC2)c(Nc2cnc(OCC3CC3)nc2)c1` (single isomer, unassigned) [Example 480] is under 5 nM; for `CCOc1ccc(NC(=O)Nc2cc(C(COC)CC(=O)O)cc(F)c2N(CC(C)C)C2CCCCC2)c(F)c1` (single isomer, unassigned) [Example 1157, 3-(4-(cyclohexyl(isobutyl)amino)-3-(3-(4-ethoxy-2-fluorophenyl)ureido)-5-fluorophenyl)-4-methoxybutanoic acid] it is under 5 nM.
`CCC(CC(=O)O)c1ccc(N2CCC[C@H]2C(C)(C)O)c(NC(=O)Nc2ccc(F)cc2)c1` (single isomer, unassigned) [Example 813]: the IC50 was over 50 nM.
The figure for `CCOc1ncc(Nc2cc(C(CC)CC(=O)O)ccc2N2CCC[C@H]2C(C)(C)O)cn1` (single isomer, unassigned) [Example 839] is over 50 nM; for `CCN(c1ccc(C(C)CC(=O)O)cc1Nc1ccc(F)cc1)C1CCOCC1` (single isomer, unassigned) [Example 615, 3-(4-(ethyl(tetrahydro-2H-pyran-4-yl)amino)-3-((4-fluorophenyl)amino)phenyl) butanoic acid] it is under 5 nM.
The figure for `CC[C@@H](CC(=O)O)c1ccc(N(CC)C2CCOCC2)c(Nc2ccn3nccc3n2)c1` (single isomer, unassigned) [Example 468] is over 50 nM; for `CCOc1ncc(Nc2cc(C(C)(C)CC(=O)O)ccc2N(CC(C)C)CC(C)C)cn1` [Example 148, 3-(4-(diisobutylamino)-3-((2-ethoxypyrimidin-5-yl)amino)phenyl)-3-methyl butanoic acid] it is under 50 nM; for `CCC(CC(=O)O)c1ccc(N(CC(C)C)C2CCCCC2)c(NC(=O)Cc2ccc(Cl)cc2F)c1` (single isomer, unassigned) [Example 1096 E2] it is under 5 nM.
Consider `CC(CC(=O)O)c1ccc(N2CCC[C@H]2C(C)(C)O)c(Nc2ccc(F)cc2)c1` (single isomer, unassigned) [Example 798], for which the IC50 is over 50 nM.
The figure for `COCC(CC(=O)OC)c1ccc(N(CC(C)C)C2CCCCC2)c(NC(=O)Nc2ccc(C)cc2)c1` (racemic) [Example 1223, (+/−)-Methyl 3-(4-(cyclohexyl(isobutyl)amino)-3-(3-(p-tolyl)ureido)phenyl)-4-methoxybutanoate] is over 50 nM.
As to `CCN(c1ccc(C(C)CC(=O)O)cc1Nc1ccc2nc(C)sc2c1)C1CCOCC1` (single isomer, unassigned) [Example 617, 3-(4-(ethyl(tetrahydro-2H-pyran-4-yl)amino)-3-((2-methylbenzo[d]thiazol-6-yl)amino)phenyl)butanoic acid], the IC50 was under 50 nM.
The figure for `COCC(CC(=O)O)c1ccc(N(CC(C)C)C2CCCCC2)c(NC(=O)Nc2cc(C)on2)c1` (single isomer, unassigned) [987-1] is under 50 nM; for `CC[C@H](CC(=O)O)c1ccc(N(CC)C2CCOCC2)c(NC(=O)Nc2ccc(F)cc2)c1` (single isomer, unassigned) [Example 527] it is under 50 nM; for `COCC(CC(=O)O)c1cc(F)c(N(CC(C)C)C2CCCCC2)c(NC(=O)Cc2ccc(Cl)cc2F)c1` (single isomer, unassigned) [Example 1172, 3-(3-(2-(4-chloro-2-fluorophenyl)acetamido)-4-(cyclohexyl(isobutyl)amino)-5-fluorophenyl)-4-methoxybutanoic acid] it is under 50 nM.
The figure for `CCC(CC(=O)O)c1ccc(N2C[C@@H](C)O[C@@H](C)C2)c(Nc2ccc3c(c2)OC(F)(F)O3)c1` (single isomer, unassigned) [Example 758] is over 50 nM.
